# Data: US10227331B2 (priority 2015, dated 2019)
# Key:
# IMP-1 = IMP-1 (Serratia marcescens, UniProt P52699); assay: biochemical; format: biochemical; conditions: CCF2-FA substrate, 2 hours at 25° C; read-out: IMP-1 IC50
# Procedure, shortened: (§1)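 Class B activity is measured in the presence of compound by fluorescence with CCF2-FA after a 2-hour incubation at 25° C. IC50 is taken from a 4-parameter fit of semi-logarithmic dose-response data.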
# NDM-1 = NDM-1 (Klebsiella pneumoniae, UniProt C7C422); assay: biochemical; format: biochemical; conditions: CCF2-FA substrate, 2 hours at 25° C; read-out: NDM-1 IC50
# Chain of NDM-1 (C7C422 whole entry, looked up, species assumed): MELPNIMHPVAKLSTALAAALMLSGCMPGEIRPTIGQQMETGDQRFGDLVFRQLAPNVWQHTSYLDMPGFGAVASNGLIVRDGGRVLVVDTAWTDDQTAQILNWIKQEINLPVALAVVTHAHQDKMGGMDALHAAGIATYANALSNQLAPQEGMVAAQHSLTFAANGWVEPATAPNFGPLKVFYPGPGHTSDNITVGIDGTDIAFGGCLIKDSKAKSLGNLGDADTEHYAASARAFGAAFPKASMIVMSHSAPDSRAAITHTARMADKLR
# Procedure, shortened: as §1
# VIM-1 = VIM-1 (Pseudomonas aeruginosa (strain ATCC 15692 / DSM 22644 / CIP 104116 / JCM 14847 / LMG 12228 / 1C / PRS 101 / PAO1), UniProt A0A0F7KYQ8); assay: biochemical; conditions: CCF2-FA substrate, 2 hours at 25° C
# Procedure, shortened: as §1
# [1] = tested on: Escherichia coli expressing NDM-1 (CLB30005, CLB30016); format: cell-based; conditions: with imipenem 1 μg/ml; 95% inhibition of bacterial growth
# Procedure, shortened: (§2)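 Clinical strains grown overnight on blood agar, then diluted 1:100 in 1.1× CAMHB and exposed to test compound with imipenem at 1 μg/ml. Incubation was 22–24 h at 35° C; growth was read by absorbance to find the compound concentration restoring imipenem susceptibility.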
# [2] = tested on: Klebsiella pneumoniae expressing VIM-1 (IHMA599644); format: cell-based; conditions: with imipenem 1 μg/ml; 95% inhibition of bacterial growth
# Procedure, shortened: as §2
# [3] = tested on: Serratia marcescens expressing IMP-1 (CL5741); format: cell-based; conditions: with imipenem 1 μg/ml; 95% inhibition of bacterial growth
# Procedure, shortened: as §2
# [4] = tested on: P. aeruginosa expressing IMP-1, efflux+ (MB9798); format: cell-based, Pseudomonas aeruginosa; conditions: for P. aeruginosa expressing IMP-1, efflux+ (MB9798) MITC95: imipenem at 2 μg/mL, in the presence of a class A, C, D serine β-lactamase inhibitor closely related to relebactam; for Efflux ratio: ratio MITC95 PA_9798/MITC95 PA_9799
# From the text: (§3) The strain background is Pseudomonas aeruginosa PAO1.
# [5] = tested on: P. aeruginosa expressing IMP-1, efflux− (MB9799); assay: Efflux: concentration of MBL inhibitor which restores susceptibility to imipenem; format: cell-based, Pseudomonas aeruginosa; conditions: imipenem at 2 μg/mL, in the presence of a class A, C, D serine β-lactamase inhibitor closely related to relebactam
# From the text: as §3
# Chain of IMP-1 (P52699 whole entry, looked up, species assumed): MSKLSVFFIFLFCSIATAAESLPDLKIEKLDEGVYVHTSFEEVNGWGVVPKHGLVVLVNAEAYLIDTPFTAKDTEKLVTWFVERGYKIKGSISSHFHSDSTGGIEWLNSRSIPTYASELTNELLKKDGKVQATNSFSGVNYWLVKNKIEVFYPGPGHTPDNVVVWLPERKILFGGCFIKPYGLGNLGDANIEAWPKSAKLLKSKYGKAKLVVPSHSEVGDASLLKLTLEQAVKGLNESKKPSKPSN
Structure (SMILES),IC50 (IMP-1),IC50 (NDM-1),IC50 (VIM-1),Escherichia coli expressing NDM-1 (CLB30016) MITC95 [1],Klebsiella pneumoniae expressing VIM-1 (IHMA599644) MITC95 [2],Serratia marcescens expressing IMP-1 (CL5741) MITC95 [3],"P. aeruginosa expressing IMP-1, efflux+ (MB9798) MITC95 [4]",Efflux ratio [4],"P. aeruginosa expressing IMP-1, efflux− (MB9799) MITC95 [5]"
"CSc1ccc(-c2ccc(C3CCNCC3)cc2)c(-c2nnn[nH]2)c1S(N)(=O)=O [Example 234, 4-(Methylthio)-4′-(piperidin-4-yl)-2-(1H-tetrazol-5-yl)-[1,1′-biphenyl]-3-sulfonamide]",4.37 nM,15.7 nM,13.9 nM,3.125 µM,12.5 µM,3.125 µM,50 µM,64.00,0.7813 µM
"C[S+]([O-])c1ccc(-c2ccc(C3CCNCC3)cc2)c(-c2nnn[nH]2)c1S(N)(=O)=O (stereo not drawn) [Example 235, 4-(methylsulfinyl)-4′-(piperidin-4-yl)-2-(1H-tetrazol-5-yl)-[1,1′-biphenyl]-3-sulfonamide]",23.6 nM,31.9 nM,8.18 nM,12.5 µM,50 µM,12.5 µM,50 µM,8.00,6.25 µM
"CS(=O)(=O)c1ccc(-c2ccc(C3CCNCC3)cc2)c(-c2nnn[nH]2)c1S(N)(=O)=O [Example 236, 4-(methylsulfonyl)-4′-(piperidin-4-yl)-2-(1H-tetrazol-5-yl)-[1,1′-biphenyl]-3-sulfonamide]",0.103 nM,2.12 nM,0.127 nM,3.125 µM,3.125 µM,3.125 µM,6.25 µM,8.00,0.7813 µM
"CS(=O)(=O)c1ccc(-c2ccc(N)nc2)c(-c2nn[nH]n2)c1S(N)(=O)=O [Example 237, 3-(6-Aminopyridin-3-yl)-6-(methylsulfonyl)-2-(2H-tetrazol-5-yl)benzenesulfonamide]",0.63 nM,5.81 nM,0.754 nM,0.3906 µM,6.25 µM,1.563 µM,25 µM,15.99,1.563 µM
"CS(=O)(=O)c1ccc(-c2cnc3ccccn23)c(-c2nn[nH]n2)c1S(N)(=O)=O [Example 238, 3-(Imidazo[1,2-a]pyridin-3-yl)-6-(methylsulfonyl)-2-(2H-tetrazol-5-yl) benzenesulfonamide]",0.333 nM,0.862 nM,0.201 nM,3.125 µM,6.25 µM,3.125 µM,50 µM,31.99,1.563 µM
"CS(=O)(=O)c1ccc(-c2cccc3sc(N)nc23)c(-c2nn[nH]n2)c1S(N)(=O)=O [Example 239, 3-(2-aminobenzo[d]thiazol-4-yl)-6-(methylsulfonyl)-2-(2H-tetrazol-5-yl) benzenesulfonamide]",0.0909 nM,0.129 nM,0.108 nM,12.5 µM,6.25 µM,3.125 µM,1.563 µM,1.00,1.563 µM
"CS(=O)(=O)c1ccc(-c2cccc3nc(N)[nH]c23)c(-c2nn[nH]n2)c1S(N)(=O)=O [Example 240, 3-(2-Amino-1H-benzo[d]imidazol-7-yl)-6-(methylsulfonyl)-2-(2H-tetrazol-5-yl) benzenesulfonamide]",7.46 nM,4.77 nM,2.6 nM,3.125 µM,25 µM,12.5 µM,50 µM,4.00,12.5 µM
